The text below walks through data of patent publication US5905036A, “Characterization of organic contaminants and assessment of remediation performance in subsurface formations” (Board Of Regents, The University of Texas System, priority 1997, dated 1999).

Entries after “also recorded” stand apart in the source; their conditions may differ. Read-outs that look alike come from different tables or passages of the source.

The nature of data set [1]: Tracer injection into uncontaminated secondary column (Example 3). Conditions: for adsorption: inferred; for mean residence time: method of moments. The data set is classed as physicochemical. As for the experimental part:
A secondary, uncontaminated column was packed and configured in the same manner as the contaminated column. The only modification made to this column was that the volume of water was equal to the volume of water plus TCE in the primary column. This secondary column was used to observe tracer behavior in an uncontaminated environment.
Before tracer injection began in the primary column, argon and C6 F12 were injected into the secondary column. Their breakthrough curves are plotted in FIG. 3. Using this procedure, the gas saturation in the secondary column would be similar to that in the primary column. The secondary column was first allowed to equilibrate. […] The C6 F12 was injected as a liquid through the heated injection port. The injector temperature was 40° C.; the liquid was vaporized and moved through the column as a gas. […] When mixed with air, however, they become gases.
The mean residence times should be equal since there is no TCE for the tracer to partition into. […] The flatness of the peak is believed to be a result of the fact that the liquid vaporizes slowly.

A short description of data set [2]: Partitioning tracer column experiment, Ottawa sand contaminated with TCE, air carrier (Example 3). Particulars: for Mean Residence Times ti / Mean Residence Times ti (cc) / Activity Coefficient, γi: 0.45 cc/min; for Activity Coefficient, γi: in TCE, ideal Ki / experimental Ki; for partitioning into TCE (in words): Ottawa sand column.
Description: Three columns were prepared for each experiment: (1) a contaminated primary column (2.5 cm×30 cm) saturated with residual water and TCE; (2) a contaminated pre-column (2.5 cm×60 cm) saturated with water and TCE; and (3) an uncontaminated secondary column (2.5 cm×30 cm) saturated only with water.
The primary column was mounted in a vertical configuration and a burette with 100 cc of deionized water was mounted above the column and attached to the inlet. The valve on the burette was opened and water was allowed to gravity drain into the column. After approximately one pore volume of water had entered the column, the burette was disconnected and the column was allowed to continue to gravity drain. Air was flushed through the column to displace any mobile water. The difference between the water injected and the water produced was used to determine the residual water saturation.
Next, approximately 5 cc of TCE, enough to produce a residual saturation, was injected into the primary column using a syringe and allowed to gravity drain. After draining overnight, the column was weighed for a more accurate estimate of TCE saturation. […] In both cases, water and TCE injection, the pre-column was treated in the same manner. However, larger amounts of water and TCE were injected since the pre-column is twice as large.
The primary column and pre-column were plumbed into the flowpath. Air flow was through the precolumn, past the reference side of the thermal conductivity detector (TCD), to the test column and then to the measurement side of the TCD. Two injectors, one for the gas tracers (Valco Instruments'switching valve with sample loop) and one for liquid tracers (heated injection port) were located between the reference side of the TCD and the test column. Flow rates were adjusted by the use of a snubber valve located between the precolumn and TCD. Flow rates were monitored and measured by a combination of rotameters and a bubble meter. The TCD measures the difference between the reference stream and the effluent of the test column. Additionally, water-filled manometers were affixed to each end of the column to measure pressure drops across the column.
Approximately 4 to 8 hours was required for the air stream to equilibrate and for a stable baseline to be established. When the baseline was stable, tracer injections began. Data collected from the TCD were integrated and the integration values stored to computer files data acquisition software.
After the uncontaminated column experiment had been completed, the contaminated column experiments were begun. […] The mean residence time for production of each tracer was calculated from the response curves using the method of moments. This value can be expressed in minutes or converted to volume units by multiplying by the flow rate.
For data set [3] the following is noted: cited from earlier work.
The conditions of data set [4]: water; cited from earlier work.
A short description of data set [5]: Partitioning tracer column experiment, field soil contaminated with TCE. The data set is classed as physicochemical. Conditions: for Activity Coefficient, γi, in field soil: field soil contaminated with TCE.
Data set [6] in a line: Batch equilibrium measurement of the partition coefficient with TCE. The format is physicochemical. The source says:
Since a rate dependence was observed, the rate was lowered to 0.08 cc/min and the experiment repeated for C4 F8. In addition, a batch equilibrium measurement of the partition coefficient was made for this tracer. […] The residence time at 0.45 cc/min is about two hours and several times this may be required for equilibrium partitioning. As the partition coefficient increases, so does the residence time, so the heavier tracers should be less effected by nonequilibrium partitioning. In any case, once suitable tracers have been identified, as has been done here, either batch experiments or experiments at low rates or in longer columns (to give long residence times) can be conducted to determine the equilibrium partitioning coefficients needed for field application (assuming the residence time for the field test is long compared to the column test).

Data set [7] in a line: Partitioning tracer column experiment, PCE-contaminated water-saturated Ottawa sand (Example 1). The data set is classed as physicochemical. Particulars: water-saturated sand with residual PCE. As for the experimental part:
A soil column experiment was performed to illustrate the use of partitioning tracers to detect DNAPL in a saturated zone. A Kontes preparative chromatography column made of borosilicate glass (4.8 cm ID) was packed with-mesh sizes of 60 to 200 Ottawa sand and saturated with water at 23° C. The length of this sandpack was 12.24 cm. The porosity and intrinsic permeability to water were measured and found to be 0.329 and 5.84 Darcy, respectively. […] Two alcohol tracers were added to the water and 0.52 pore volumes of water containing these tracers were injected at 0.316 ml/min followed by several more pore volumes of water until the alcohols could no longer be detected in the effluent. […] The partition coefficients of each of these alcohols were determined by equilibrating samples containing in the range of 100 to 1,000 mg/l of both alcohols with equal volumes of water and PCE and measuring the alcohol concentrations in each phase using a gas chromatograph. […]
The separation of the two curves gives an unmistakable signal that the sand is contaminated with PCE. […] This value agrees with the value measured from a mass balance on the PCE within the experimental error of each of the measurements. The tracer curves were then numerically simulated using this value and the measured partition coefficients and these are the curves shown in FIG. 1. […]

Data set [8] is described as follows: Partitioning tracer column experiment after surfactant remediation of the sand (Example 2). The data set is classed as physicochemical. Particulars: no NAPL present. The source says: The contaminated sand from Example 1 was cleaned by flushing the sand with an aqueous solution of surfactant until all the trichloroethene was removed to thereby simulate a successful remediation. The procedure of Example 1 was then repeated.

`[Ar]` [Argon]: in data set [1], the adsorption result is reported as “negligible” and the mean residence time is 45 cc. In data set [2] (Ottawa sand, TCE), the “Mean Residence Times ti” value was 93.2 min and the “Mean Residence Times ti (cc)” value was determined as 41.9 cc.
For `ClC=C(Cl)Cl` [TCE, trichloroethylene], the vapor pressure in data set [3] (20° C.) is given as 1.16 psi. In data set [4], the aqueous solubility was 1385 milligrams/liter.
As for `FC(F)(F)C1(F)C(F)(F)C(F)(F)C(F)(F)C(F)(C(F)(F)F)C1(F)F` (stereo not shown) [C8 F16, perfluoro-1,3-dimethylcyclohexane], the “Vapor Press” value in data set [3] (@ 25 ° C.) is listed as 0.67 psi. Further, the “Activity Coefficient, γi, in field soil” value in data set [5] was found to be 89.7. Besides, in data set [2] (Ottawa sand, TCE), the “Mean Residence Times ti” value is 1055.0 min and the “Mean Residence Times ti (cc)” value was 474.8 cc. Also, in data set [2] (Ottawa sand), the “Activity Coefficient, γi” value turned out to be 63.1.
On to `FC1(F)C(F)(F)C(F)(F)C1(F)F` [C4 F8, Octafluorocyclobutane], for which the “Vapor Press” value in data set [3] (@ 21 ° C.) was 40 psi. Also, the “Activity Coefficient, γi, in field soil” value in data set [5] is given as 20.8. In data set [6], the “partition coefficient, batch equilibrium” value is reported as “about 4.7”. In addition, in data set [2] (0.08 cc/min, Ottawa sand, TCE), the “partition coefficient at 0.08 cc/min” value was “about 4.7”. Further, in data set [2] (Ottawa sand, TCE), the “Mean Residence Times ti” value was 131.4 min and the “Mean Residence Times ti (cc)” value worked out at 59.1 cc. Also, the “Activity Coefficient, γi” value in data set [2] (Ottawa sand) is recorded as 26.6.
Regarding `FC(F)(F)F` [CF4, Carbon Tetrafluoride], the “partitioning into TCE in field soil (in words)” value in data set [5] (field soil) is recorded as “negligible partitioning”. Moreover, in data set [2] (Ottawa sand, TCE), the “Mean Residence Times ti” value worked out at 95.1 min and the “Mean Residence Times ti (cc)” value is 42.8 cc. The “partitioning into TCE (in words)” value in data set [2] is recorded as “essentially zero; also recorded: negligible partitioning”.
With `[3H]O[3H]` [tritiated water], the “partitioning / retardation in PCE-contaminated column” value in data set [7] is “does not partition”.
Take `FS(F)(F)(F)(F)F` [SF6, Sulfur Hexafluoride]: in data set [3] (@ 21 ° C.), the “Vapor Press” value is 334 psi. Moreover, in data set [5], the “Activity Coefficient, γi, in field soil” value was 17.2. In data set [2] (Ottawa sand, TCE), the “Mean Residence Times ti” value amounted to 103.7 min and the “Mean Residence Times ti (cc)” value was 46.7 cc. The “partitioning into TCE (in words)” value in data set [2] is recorded as “small but experimentally significant partitioning”. Besides, the “Activity Coefficient, γi” value in data set [2] (Ottawa sand) was determined as 11.6.
For the molecule `CC(C)C(C)(C)O` [DMB, 2,3dimethyl 2-butanol], the “partitioning / retardation in PCE-contaminated column” value in data set [7] is “retarded relative to the IPA”. In addition, the “tracer travel after remediation (in words)” value in data set [8] is reported as “travel through the sand at the same rate”.
On to `FC1=C(F)C(F)(F)C(F)(F)C1(F)F` [C5 F8, Octafluorocyclopentene], for which the “Vapor Press” value in data set [3] (@ 25 ° C.) is 12.7 psi. Besides, in data set [5], the “Activity Coefficient, γi, in field soil” value is 17.2. For the same molecule, in data set [2] (Ottawa sand, TCE), the “Mean Residence Times ti” value was 235.0 min and the “Mean Residence Times ti (cc)” value was determined as 105.8 cc. The “Activity Coefficient, γi” value in data set [2] (Ottawa sand) worked out at 20.3.
Consider “dodecafluorodimethylcyclobutane [C6 F12]”, for which, in data set [3] (@ 25 ° C.), the “Vapor Press” value is recorded as 7.2 psi. Moreover, the “Activity Coefficient, γi, in field soil” value in data set [5] is reported as 45. For the same molecule, in data set [1], the adsorption result is reported as “negligible” and the mean residence time stood at 45 cc. Also, in data set [2] (Ottawa sand, TCE), the “Mean Residence Times ti” value came out at 204.4 min and the “Mean Residence Times ti (cc)” value is given as 92.0 cc. Further, in data set [2] (Ottawa sand), the “Activity Coefficient, γi” value was found to be 52.0. Besides, the “factor by which mean residence time differs from argon” value in data set [2] (primary column, TCE, Ottawa sand) is reported as “more than two”.
In the case of `FC(F)(F)C1(F)C(F)(F)C(F)(F)C(F)(F)C(F)(F)C1(F)F` [C7 F14, perfluoromethylcyclohexane], in data set [3] (@ 25 ° C.), the “Vapor Press” value is 2.1 psi. The “Activity Coefficient, γi, in field soil” value in data set [5] is recorded as 52.6. In data set [2] (Ottawa sand, TCE), the “Mean Residence Times ti” value stood at 362.6 min and the “Mean Residence Times ti (cc)” value was found to be 163.2 cc. Besides, the “Activity Coefficient, γi” value in data set [2] (Ottawa sand) was 58.3.
